Test results reported in patent US8389555B2, “Medicaments” (Motac Neuroscience Limited, priority 2007, dated 2013).

How the values were obtained:
[1] = target: T1, human dopamine D3 receptors (Homo sapiens, UniProt P35462); experiment: Dopamine D3 receptor binding assay ([3H]spiperone, CHO cell membranes); details: for Ki: human D3 receptors in CHO cells, 0.2 nM [3H]spiperone, mean ± SEM, read-out: Affinity Ki (D3); for Selectivity Ki(D2)/Ki(D3): ratio of Ki(D2) to Ki(D3)
T1 construct: expressed in transfected cells
Experimental: (§1) Compounds synthesized in Examples A, B, C and D were assayed to test their affinity for dopamine D3 and D2 receptors.
(§2) METHODS: Dopamine D2S and D3 Receptor Binding Assays
Human D3 receptors stably expressed in CHO cells were used as described by Sokoloff et al. (Sokoloff, P. et al., Eur. J. Pharmacol. 1992, 225, 331-337). The cell line was cultured in Dulbecco's modified Eagle's medium supplemented with 2 mM glutamine, and 10% dialyzed fetal bovine serum, and were grown in an atmosphere of 5% CO2 at 37° C. (Gibco™).
(§3) Human D2S- and D3 receptors expressing cell lines were grown to confluence. The medium was removed, and the cells were washed with 10 ml PBS buffer (140 mM NaCl, 3 mM KCl, 1.5 mM KH2PO4, 8 mM Na2HPO4, pH 7.4) at 4° C. After removing the wash buffer, the cells were scraped from the flasks into 15 ml of ice-cold media, and centrifuged at 3,000 rpm for 10 minutes at 4° C. After centrifugation the medium was removed and the […] resuspended in ice-cold Tris-HCl buffer containing 5 mM MgCl2, pH 7.4 and disrupted with a Polytron and centrifuged at 20,000 rpm, for 30 minutes at 4° C. The pellet was resuspended by sonication in ice-cold Tris-HCl buffer (containing 5 mM MgCl2, pH 7.4), membrane aliquots were stored at −70° C. Determination of membrane protein was carried out by the method of Bradford (Bradford, M. M. Anal Biochem 1976, 72, 248-54).
(§4) Cell membranes containing human D2S and D3 receptors from CHO cells were thawed, rehomogenized with sonication at 4° C. in Tris-HCl, pH 7.4 containing 120 mM NaCl, 5 mM KCl, 2 mM CaCl2 and 1 mM MgCl2 (incubation buffer), and incubated with 0.2 nM [^3H]spiperone (106 Ci·mmol^−1, Amersham Biosciences, Freiburg, Germany), and drug diluted in incubation buffer. Non-specific binding was determined in the presence of 10 μM BP 897 ((Wermuth, C. G. et al. in Chem. Abstr. (Eur. Pat. 0779284, 1997)). Incubations were run at 25° C. for 120 min, and terminated by rapid filtration through PerkinElmer GF/B glass fibre filters (PerkinElmer Life Sciences, Rodgau, Germany) coated in 0.3% polyethylenimine (Sigma-Aldrich, Taufkirchen, Germany) using an Inotech cell harvester (Inotech AG, Dottikon, Switzerland). Unbound radioligand was removed with four washes of 1 ml of ice-cold 50 mM Tris-HCl buffer, pH 7.4, containing 120 mM NaCl. The filters were soaked in 9 ml Beta plate scint scintillator and counted using a PerkinElmer MicroBeta®Trilux scintillation counter (PerkinElmer Life Sciences). Competition binding data were analyzed by the software GraphPad Prism™ (2000, version 3.02, San Diego, Calif., USA), using non-linear least squares fit. For detailed screening the compounds have been tested at seven concentrations in triplicate carrying out three to five separate binding experiments for human dopamine D2S and for human dopamine D3 receptors and expressed as mean±standard error of the mean (SEM). Ki values were calculated from the IC50 values according to Cheng-Prusoff equation (Cheng, Y. C., Prusoff, W. H. Biochem. Pharmacol. 1973, 22, 3099-3108.).

[2] = target: T2, recombinant human D2(short) dopamine receptor (Homo sapiens, UniProt P14416); experiment: Dopamine D2S receptor binding assay ([3H]spiperone, CHO cell membranes); details: human D2S receptors in CHO cells, 0.2 nM [3H]spiperone, mean ± SEM; read-out: Affinity Ki (D2)
T2 construct: expressed in transfected cells; host or cells: CHO-D2S cells (per Hayes et al. 1992)
Experimental: as §1, §2
CHO-D2S cells, expressing the recombinant human D2(short) dopamine receptor gene, (Hayes, G. et al., J. Mol. Endocrinol. 1992, 6, 920-926) were grown in Dulbecco's modified Eagle's medium/nutrient mixture F12 1:1 mixture supplemented with 2 mM glutamine, 10% fetal bovine serum, and 10 μl·ml^−1 penicillin/streptomycin in an atmosphere of 5% CO2 at 37° C. (Gibco™, Karlsruhe, Germany).
as §3, §4

T1 sequence (P35462 whole entry): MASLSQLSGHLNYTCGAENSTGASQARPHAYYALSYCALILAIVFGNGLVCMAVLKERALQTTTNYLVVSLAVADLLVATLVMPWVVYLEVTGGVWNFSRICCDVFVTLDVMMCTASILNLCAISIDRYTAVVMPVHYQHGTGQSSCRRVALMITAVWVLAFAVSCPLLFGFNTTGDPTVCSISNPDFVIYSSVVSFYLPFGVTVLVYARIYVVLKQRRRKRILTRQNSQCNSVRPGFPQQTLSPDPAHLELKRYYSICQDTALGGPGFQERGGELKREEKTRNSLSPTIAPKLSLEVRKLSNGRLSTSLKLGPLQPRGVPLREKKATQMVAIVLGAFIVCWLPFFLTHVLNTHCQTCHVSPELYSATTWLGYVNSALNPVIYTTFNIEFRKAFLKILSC
T2 sequence (P14416 1-414 isoform P14416-2): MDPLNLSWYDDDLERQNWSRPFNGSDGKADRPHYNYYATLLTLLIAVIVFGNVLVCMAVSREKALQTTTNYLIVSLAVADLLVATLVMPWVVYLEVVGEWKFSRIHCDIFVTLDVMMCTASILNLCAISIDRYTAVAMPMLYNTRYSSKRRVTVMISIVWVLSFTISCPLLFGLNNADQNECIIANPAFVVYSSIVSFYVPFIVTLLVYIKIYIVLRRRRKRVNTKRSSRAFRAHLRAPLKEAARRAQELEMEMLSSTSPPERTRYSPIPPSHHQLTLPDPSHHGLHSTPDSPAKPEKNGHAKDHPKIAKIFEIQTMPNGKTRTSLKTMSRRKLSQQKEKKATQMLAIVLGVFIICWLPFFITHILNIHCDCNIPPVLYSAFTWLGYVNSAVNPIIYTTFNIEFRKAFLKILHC

Ki [1] | Selectivity Ki(D2)/Ki(D3) [1] | Ki [2] | SMILES
108 ± 40 nM | 77 | 8370 ± 3820 nM | CC#CCN(CCCCNC(=O)c1ccc2ccccc2c1)C1CCc2ncsc2C1 (stereo not drawn) [Compound 8, Naphthalene-2-carboxylic acid {4-[but-2-ynyl-(4,5,6,7-tetrahydro-benzothiazol-6-yl)-amino]-butyl}-amide]
6.29 ± 1.8 nM | 435 | 2730 ± 611 nM | CCCN(CCCCNC(=O)N1CCC(c2ccccc2)CC1)C1CCc2ncsc2C1 (stereo not drawn) [Compound 64, 4-phenyl-N-(4-(propyl-(4,5,6,7-tetrahydrobenzo [d]thiazol-6-yl)amino)butyl)piperidine-1-carboxamide]
2.62 ± 0.16 nM | 582 | 1530 ± 297 nM | CCCN(CCCCNC(=O)C1CCCCC1)C1CCc2ncsc2C1 (stereo not drawn) [Compound 20, Cyclohexanecarboxylic acid {4-[propyl-(4,5,6,7-tetrahydro-benzothiazol-6-yl)-amino]-butyl}-amide]
1900 ± 510 nM | 13 | 24500 ± 7580 nM | O=C(NCCCCNC1CCc2ncsc2C1)c1nc2ccccc2s1 (stereo not drawn) [Compound 63, N-(4-(4,5,6,7-Tetrahydrobenzo[d]thiazol-6-ylamino)butyl)benzo[d]thiazole-2-carboxamide]
13.5 ± 1.1 nM | 11 | 148 ± 23 nM | CCN(CCN1CCN(c2ccccc2OC)CC1)C1CCc2ncsc2C1 (stereo not drawn) [Compound 28]
292 ± 41 nM | 80 | 23400 ± 1220 nM | O=C(NCCCCNC1CCc2ncsc2C1)c1cc2ccccc2s1 (stereo not drawn) [Compound 10, Benzo[b]thiophene-2-carboxylic acid [4-(4,5,6,7-tetrahydro-benzothiazol-6-ylamino)-butyl]-amide]
25.4 ± 9.6 nM | 151 | 3820 ± 1100 nM | CN(CCCCNC(=O)c1ccc2ccccc2c1)C1CCc2ncsc2C1 (stereo not drawn) [Compound 3, Naphthalene-2-carboxylic acid {4-[methyl-(4,5,6,7-tetrahydro-benzothiazol-6-yl)-amino]-butyl}-amide]
35 ± 22 nM | 4 | 129 ± 36 nM | CCCN(CCCN1CCN(c2cccc(Cl)c2Cl)CC1)C1CCc2ncsc2C1 (stereo not drawn) [Compound 36, {3-[4-(2,3-Dichloro-phenyl)-piperazin-1-yl]-propyl}-propyl-(4,5,6,7-tetrahydro-benzothiazol-6-yl)-amine]
7.6 ± 1.6 nM | 7 | 79.4 ± 49.7 nM | CCCN(CCCCN1CCN(c2cccc(Cl)c2Cl)CC1)C1CCc2ncsc2C1 (stereo not drawn) [Compound 37, {4-[4-(2,3-Dichloro-phenyl)-piperazin-1-yl]-butyl}-propyl-(4,5,6,7-tetrahydro-benzothiazol-6-yl)-amine]
1.52 ± 0.55 nM | 1189 | 1810 ± 376 nM | CCCN(CCCCNC(=O)C1Cc2ccccc2C1)C1CCc2ncsc2C1 (stereo not drawn) [Compound 26, Indane-2-carboxylic acid-{4-[propyl-(4,5,6,7-tetrahydrobenzothiazol-6-yl)amino]butyl}amide]
3.36 ± 1.21 nM | 649 | 2180 ± 1640 nM | CCCN(CCCCNC(=O)NC1Cc2ccccc2C1)C1CCc2ncsc2C1 (stereo not drawn) [Compound 60, 1-Indan-2-yl-3-{4-[propyl-(4,5,6,7-tetrahydrobenzothiazol-6-yl)amino]butyl}urea]
2.92 ± 0.48 nM | 856 | 2500 ± 463 nM | CCN(CCCCNC(=O)c1cc2ccccc2s1)C1CCc2ncsc2C1 (stereo not drawn) [Compound 12, Benzo[b]thiophene-2-carboxylic acid {4-[ethyl-(4,5,6,7-tetrahydro-benzothiazol-6-yl)-amino]-butyl}-amide]
26.5 ± 4.4 nM | 35 | 929 ± 103 nM | CCN(CCN1CCc2ccccc2C1)C1CCc2ncsc2C1 (stereo not drawn) [Compound 31, [2-(3,4-Dihydro-1H-isoquinolin-2-yl)-ethyl]-ethyl-(4,5,6,7-tetrahydro-benzothiazol-6-yl)-amine]
1.16 ± 0.17 nM | 751 | 873 ± 388 nM | CCCN(CCCCNC(=O)c1ccc2ccccc2c1)C1CCc2ncsc2C1 (stereo not drawn) [Compound 5, Naphthalene-2-carboxylic acid {4-[propyl-(4,5,6,7-tetrahydro-benzothiazol-6-yl)-amino]-butyl}-amide]
147 ± 30 nM | 143 | 21000 ± 2550 nM | O=C(NCCCCNC1CCc2ncsc2C1)c1ccc2ccccc2c1 (stereo not drawn) [Compound 2, Naphthalene-2-carboxylic acid [4-(4,5,6,7-tetrahydro-benzothiazol-6-ylamino)-butyl]-amide]
7.76 ± 1.37 nM | 1170 | 9080 ± 684 nM | C#CCN(CCCCNC(=O)c1ccc2ccccc2c1)C1CCc2ncsc2C1 (stereo not drawn) [Compound 7, Naphthalene-2-carboxylic acid {4-[prop-2-ynyl-(4,5,6,7-tetrahydro-benzothiazol-6-yl)-amino]-butyl}-amide]
0.95 nM | 2879 | 2740 ± 1080 nM | CCCN(CCCCNC(=O)C12CC3CC(CC(C3)C1)C2)C1CCc2ncsc2C1 (stereo not drawn) [Compound 65]
2.41 ± 1 nM | 184 | 445 ± 55 nM | CCCN(CCCCNC(=O)C=Cc1ccc(Cl)cc1Cl)C1CCc2ncsc2C1 (stereo not drawn) [Compound 17, 2,4-Dichloro-N-{4-[propyl-(4,5,6,7-tetrahydro-benzothiazol-6-yl)-amino]-butyl}-cinnamoylamide]
2.7 ± 0.94 nM | 581 | 1570 ± 303 nM | CCN(CCCCNC(=O)c1ccc2ccccc2c1)C1CCc2ncsc2C1 (stereo not drawn) [Compound 4, Naphthalene-2-carboxylic acid {4-[ethyl-(4,5,6,7-tetrahydro-benzothiazol-6-yl)-amino]-butyl}-amide]
16 ± 6 nM | 141 | 2280 ± 105 nM | CCCN(CCCCNC(=O)c1cc2ccccc2s1)C1CCc2ncsc2C1 (stereo not drawn) [Compound 13, Benzo[b]thiophene-2-carboxylic acid {4-[propyl-(4,5,6,7-tetrahydro-benzothiazol-6-yl)-amino]-butyl}-amide]
55.3 ± 16.1 nM | 8.7 | 480 ± 51 nM | CCN(CCCCN1CCN(c2ccccc2OC)CC1)C1CCc2ncsc2C1 (stereo not drawn) [Compound 30, Ethyl-{4-[4-(2-methoxy-phenyl)-piperazin-1-yl]-butyl}-(4,5,6,7-tetrahydro-benzothiazol-6-yl)-amine]
1.72 ± 0.22 nM | 1262 | 2170 ± 566 nM | CCCN(CCCCNC(=O)C1CCc2ccccc2C1)C1CCc2ncsc2C1 (stereo not drawn) [Compound 23, 1,2,3,4-Tetrahydro-naphthalene-2-carboxylic acid {4-[propyl-(4,5,6,7-tetrahydro-benzothiazol-6-yl)-amino]-butyl}-amide]
67.8 ± 21.4 nM | 38 | 2550 ± 302 nM | CCN(CCNC(=O)c1ccc2ccccc2c1)C1CCc2ncsc2C1 (stereo not drawn) [Compound 32, Naphthalene-2-carboxylic acid {2-[ethyl-(4,5,6,7-tetrahydro-benzothiazol-6-yl)-amino]-ethyl}-amide]
7.31 ± 2.86 nM | 667 | 4880 ± 1890 nM | CCCN(CCCCNC(=O)N1CC=C(c2ccccc2)CC1)C1CCc2ncsc2C1 (stereo not drawn) [Compound 62, 4-Phenyl-3,6-dihydro-2H-pyridine-1-carboxylic acid {4-[propyl-(4,5,6,7-tetrahydrobenzothiazol-6-yl)amino]butyl}amide]
